Measured values taken from the supplement of paper PMC12463676, “Small-molecule dissolution of stress granules by redox modulation benefits ALS models” (Nature Chemical Biology, 2025).

Columns and labels:
lipoamide = compound: NC(=O)CCCCC1CCSS1 [lipoamide]; assay: thermal stability z-score vs DMSO; higher = more thermally stabilized by treatment; details: HeLa, lipoamide concentration 100 µM
Experimental: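 Cellular thermal proteome profiling in HeLa cells. Cells were treated with 100 µM lipoamide for 1 h, with or without 1 mM arsenate for a further 1 h, then heated to ten temperatures (37-66.3 °C), and soluble protein was quantified by TMT mass spectrometry relative to 0.1% DMSO controls. The thermal stability score (sum of log2 fold changes minus the abundance score) was transformed to a z-score; mean of n = 3 experiments.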

potassium arsenate = compound: O=[As]([O-])(O)O.[K+] [potassium arsenate]; assay: as above; details: HeLa; arsenate concentration 1 mM
Experimental: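 Cellular thermal proteome profiling in HeLa cells treated with 1 mM arsenate for 1 h (DMSO pretreatment), heated to ten temperatures (37-66.3 °C). Soluble protein was quantified by TMT mass spectrometry relative to DMSO controls; the thermal stability score was transformed to a z-score; mean of n = 3 experiments.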

[1] = arsenate co-treatment: 1 mM arsenate 1 h
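Also: each temperature applied for 3 min, abundance score taken as mean log2 fold change at the two lowest temperatures, z-score obtained by mean subtraction and division by SD.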

Chain of UniProt Q14118 (Q14118 whole entry): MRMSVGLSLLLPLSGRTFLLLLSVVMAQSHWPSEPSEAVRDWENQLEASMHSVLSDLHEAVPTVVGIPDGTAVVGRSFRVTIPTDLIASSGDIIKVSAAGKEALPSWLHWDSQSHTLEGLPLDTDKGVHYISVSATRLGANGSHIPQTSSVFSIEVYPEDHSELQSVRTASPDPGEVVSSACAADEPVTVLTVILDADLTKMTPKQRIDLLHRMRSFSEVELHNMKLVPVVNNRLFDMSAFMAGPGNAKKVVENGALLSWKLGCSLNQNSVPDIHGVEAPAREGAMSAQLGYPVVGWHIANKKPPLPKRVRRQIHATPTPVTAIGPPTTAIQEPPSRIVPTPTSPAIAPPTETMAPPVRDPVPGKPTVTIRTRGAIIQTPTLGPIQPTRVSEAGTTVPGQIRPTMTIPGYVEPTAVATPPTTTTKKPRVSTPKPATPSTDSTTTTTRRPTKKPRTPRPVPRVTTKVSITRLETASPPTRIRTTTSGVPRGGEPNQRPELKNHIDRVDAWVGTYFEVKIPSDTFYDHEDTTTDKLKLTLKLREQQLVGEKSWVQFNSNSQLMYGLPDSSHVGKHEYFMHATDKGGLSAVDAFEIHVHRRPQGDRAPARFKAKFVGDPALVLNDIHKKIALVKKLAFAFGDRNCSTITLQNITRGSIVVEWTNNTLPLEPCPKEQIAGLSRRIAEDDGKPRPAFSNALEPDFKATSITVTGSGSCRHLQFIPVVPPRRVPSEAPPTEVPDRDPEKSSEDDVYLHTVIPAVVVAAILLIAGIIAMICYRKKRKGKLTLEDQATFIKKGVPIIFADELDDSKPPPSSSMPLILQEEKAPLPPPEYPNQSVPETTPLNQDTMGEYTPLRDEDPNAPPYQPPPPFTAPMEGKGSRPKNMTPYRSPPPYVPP
Chain of UniProt O75351 (O75351 whole entry): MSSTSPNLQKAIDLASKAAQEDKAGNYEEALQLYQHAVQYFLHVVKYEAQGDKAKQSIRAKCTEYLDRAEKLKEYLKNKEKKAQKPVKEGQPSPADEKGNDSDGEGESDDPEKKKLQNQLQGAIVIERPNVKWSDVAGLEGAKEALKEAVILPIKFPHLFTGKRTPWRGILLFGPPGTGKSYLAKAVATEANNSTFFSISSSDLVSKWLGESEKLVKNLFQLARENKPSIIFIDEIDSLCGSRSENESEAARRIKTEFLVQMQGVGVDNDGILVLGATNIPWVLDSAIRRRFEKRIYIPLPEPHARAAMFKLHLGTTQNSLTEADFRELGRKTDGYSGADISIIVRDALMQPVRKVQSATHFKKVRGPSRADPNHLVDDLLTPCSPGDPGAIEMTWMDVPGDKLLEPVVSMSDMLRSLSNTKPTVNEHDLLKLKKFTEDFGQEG
Chain of UniProt Q13057 (Q13057 whole entry): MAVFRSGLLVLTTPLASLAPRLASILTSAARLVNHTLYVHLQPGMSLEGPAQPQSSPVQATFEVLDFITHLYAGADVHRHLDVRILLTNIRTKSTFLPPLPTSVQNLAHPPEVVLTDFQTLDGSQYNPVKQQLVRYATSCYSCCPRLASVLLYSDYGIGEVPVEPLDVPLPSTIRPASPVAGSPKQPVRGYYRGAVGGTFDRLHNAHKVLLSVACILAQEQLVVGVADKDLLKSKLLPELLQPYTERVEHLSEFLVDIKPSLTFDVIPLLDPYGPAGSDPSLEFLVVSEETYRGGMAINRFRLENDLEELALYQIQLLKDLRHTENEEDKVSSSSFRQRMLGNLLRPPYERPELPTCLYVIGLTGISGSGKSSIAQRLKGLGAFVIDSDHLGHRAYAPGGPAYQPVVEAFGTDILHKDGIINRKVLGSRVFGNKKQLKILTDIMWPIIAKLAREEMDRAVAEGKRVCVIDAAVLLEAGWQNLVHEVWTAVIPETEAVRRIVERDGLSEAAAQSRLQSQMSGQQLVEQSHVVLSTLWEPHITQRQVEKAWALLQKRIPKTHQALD
Chain of UniProt O43657 (O43657 whole entry): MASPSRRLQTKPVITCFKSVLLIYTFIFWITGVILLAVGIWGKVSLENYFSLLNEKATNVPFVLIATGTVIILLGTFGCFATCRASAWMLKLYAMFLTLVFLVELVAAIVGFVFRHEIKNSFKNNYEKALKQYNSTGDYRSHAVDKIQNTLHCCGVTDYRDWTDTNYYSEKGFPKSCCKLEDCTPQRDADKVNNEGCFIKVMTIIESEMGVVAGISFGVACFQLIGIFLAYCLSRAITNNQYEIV
Chain of UniProt Q8IW50 (Q8IW50 whole entry): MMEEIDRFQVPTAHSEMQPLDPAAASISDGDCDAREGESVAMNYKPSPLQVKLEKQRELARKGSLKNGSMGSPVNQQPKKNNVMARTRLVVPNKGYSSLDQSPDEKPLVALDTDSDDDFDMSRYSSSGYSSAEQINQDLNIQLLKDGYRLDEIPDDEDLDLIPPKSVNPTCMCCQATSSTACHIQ
Chain of UniProt P23025 (P23025 whole entry): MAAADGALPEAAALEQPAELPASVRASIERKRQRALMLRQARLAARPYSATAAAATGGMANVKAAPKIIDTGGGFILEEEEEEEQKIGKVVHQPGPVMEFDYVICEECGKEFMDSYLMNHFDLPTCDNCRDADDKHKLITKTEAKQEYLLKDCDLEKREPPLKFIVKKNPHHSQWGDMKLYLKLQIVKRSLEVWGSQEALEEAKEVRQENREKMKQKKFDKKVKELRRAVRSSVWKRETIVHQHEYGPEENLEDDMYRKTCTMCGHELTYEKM
Chain of UniProt Q14126 (Q14126 whole entry): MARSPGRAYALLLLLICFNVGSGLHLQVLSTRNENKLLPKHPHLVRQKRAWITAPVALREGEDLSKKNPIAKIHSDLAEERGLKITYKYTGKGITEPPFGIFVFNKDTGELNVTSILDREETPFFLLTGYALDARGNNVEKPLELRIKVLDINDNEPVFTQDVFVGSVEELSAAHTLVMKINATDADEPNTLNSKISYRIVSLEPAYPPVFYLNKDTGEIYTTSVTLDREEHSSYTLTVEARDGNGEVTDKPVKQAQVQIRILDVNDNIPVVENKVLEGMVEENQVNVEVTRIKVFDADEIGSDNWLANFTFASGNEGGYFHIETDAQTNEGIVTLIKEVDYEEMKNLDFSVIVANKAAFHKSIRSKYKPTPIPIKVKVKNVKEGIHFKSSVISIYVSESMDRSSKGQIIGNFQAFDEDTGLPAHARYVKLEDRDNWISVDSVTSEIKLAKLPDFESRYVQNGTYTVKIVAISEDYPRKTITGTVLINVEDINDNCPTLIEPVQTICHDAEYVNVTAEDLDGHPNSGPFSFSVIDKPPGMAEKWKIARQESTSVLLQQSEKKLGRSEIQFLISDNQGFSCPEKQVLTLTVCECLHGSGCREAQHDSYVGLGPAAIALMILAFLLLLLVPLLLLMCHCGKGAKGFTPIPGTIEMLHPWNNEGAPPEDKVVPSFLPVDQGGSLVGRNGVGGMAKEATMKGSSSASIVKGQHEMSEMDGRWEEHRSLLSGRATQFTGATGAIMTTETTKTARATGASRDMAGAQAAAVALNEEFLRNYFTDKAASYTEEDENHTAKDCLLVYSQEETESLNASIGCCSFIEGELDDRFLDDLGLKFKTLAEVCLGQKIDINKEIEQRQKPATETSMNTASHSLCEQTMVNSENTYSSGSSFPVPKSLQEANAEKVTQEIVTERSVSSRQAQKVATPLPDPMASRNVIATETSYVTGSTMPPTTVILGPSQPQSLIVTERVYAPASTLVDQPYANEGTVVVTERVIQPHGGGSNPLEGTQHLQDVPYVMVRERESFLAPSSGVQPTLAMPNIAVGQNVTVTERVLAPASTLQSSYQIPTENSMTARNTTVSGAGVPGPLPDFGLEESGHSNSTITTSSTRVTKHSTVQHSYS
Chain of UniProt Q13608 (Q13608 whole entry): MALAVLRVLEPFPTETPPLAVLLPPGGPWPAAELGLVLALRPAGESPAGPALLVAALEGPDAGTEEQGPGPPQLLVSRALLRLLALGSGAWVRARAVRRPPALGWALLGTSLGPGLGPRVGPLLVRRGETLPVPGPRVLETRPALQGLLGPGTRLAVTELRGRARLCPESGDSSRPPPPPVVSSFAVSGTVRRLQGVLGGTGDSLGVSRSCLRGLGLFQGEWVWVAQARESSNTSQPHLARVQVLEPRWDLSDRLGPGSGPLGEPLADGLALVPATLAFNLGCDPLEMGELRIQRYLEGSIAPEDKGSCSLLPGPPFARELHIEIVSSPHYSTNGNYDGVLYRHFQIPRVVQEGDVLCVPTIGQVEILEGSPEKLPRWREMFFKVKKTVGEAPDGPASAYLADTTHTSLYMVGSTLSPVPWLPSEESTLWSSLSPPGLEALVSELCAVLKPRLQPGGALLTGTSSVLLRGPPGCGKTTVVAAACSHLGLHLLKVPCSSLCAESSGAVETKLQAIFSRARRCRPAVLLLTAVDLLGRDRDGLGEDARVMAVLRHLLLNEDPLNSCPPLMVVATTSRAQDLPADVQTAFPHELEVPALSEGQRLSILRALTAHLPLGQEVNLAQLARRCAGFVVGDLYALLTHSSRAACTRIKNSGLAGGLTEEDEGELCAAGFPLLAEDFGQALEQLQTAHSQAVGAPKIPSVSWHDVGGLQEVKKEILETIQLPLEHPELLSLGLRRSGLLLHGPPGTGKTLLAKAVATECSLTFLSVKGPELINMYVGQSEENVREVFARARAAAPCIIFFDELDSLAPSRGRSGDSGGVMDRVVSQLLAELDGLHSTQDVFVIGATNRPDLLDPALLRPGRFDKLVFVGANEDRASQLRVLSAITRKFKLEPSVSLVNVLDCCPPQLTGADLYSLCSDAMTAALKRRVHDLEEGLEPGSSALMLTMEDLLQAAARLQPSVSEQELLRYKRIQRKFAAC
Chain of UniProt O96011 (O96011 whole entry, change not shown): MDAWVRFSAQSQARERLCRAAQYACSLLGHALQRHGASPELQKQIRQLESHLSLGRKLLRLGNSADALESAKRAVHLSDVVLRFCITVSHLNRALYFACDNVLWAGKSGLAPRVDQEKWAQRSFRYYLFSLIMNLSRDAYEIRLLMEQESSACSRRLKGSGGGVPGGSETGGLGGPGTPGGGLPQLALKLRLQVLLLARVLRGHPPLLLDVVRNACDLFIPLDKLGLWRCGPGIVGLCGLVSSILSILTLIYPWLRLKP

Target | thermal stability z-score (lipoamide; [1]) | thermal stability z-score (lipoamide; arsenate co-treatment: none) | thermal stability z-score (potassium arsenate)
XPA (UniProt P23025) | 0.0325 | 0.0998 | -0.0786
DSG2 (UniProt Q14126) | -0.108 | 0.19 | 0.99
TTN (UniProt Q8WZ42) | 0.609 | 0.578 | 0.121
SSRP1 (UniProt Q08945) | 1.24 | 2.15 | 1.4
RALBP1 (UniProt Q15311) | 0.0469 | 0.055 | 0.00922
RAD23A (UniProt P54725) | 0.0472 | 0.234 | -0.142
GIT2 (UniProt Q14161) | 1.13 | 1.87 | 1
DYNLL1 (UniProt P63167) | -0.627 | -0.0429 | 0.163
FAM219A (UniProt Q8IW50) | -1.69 | 2.4 | -9.1
RFX5 (UniProt P48382) | 0.562 | 0.613 | 0.132
MID1 (UniProt O15344) | -0.525 | -0.224 | -0.963
PYGB (UniProt P11216) | 0.243 | 0.0472 | -1.24
SDR16C5 (UniProt Q8N3Y7) | -0.26 | -0.252 | 0.0129
DPP7 (UniProt Q9UHL4) | 0.246 | 0.304 | -0.0217
BPGM (UniProt P07738) | -1.9 | -0.479 | -1.82
PEX6 (UniProt Q13608) | 0.132 | 0.339 | 0.938
CERCAM (UniProt Q5T4B2) | -0.0616 | -0.543 | -0.44
KIRREL (UniProt Q96J84) | 0.0439 | -0.449 | 0.892
DAG1 (UniProt Q14118) | -0.341 | -0.236 | 0.184
ACBD5 (UniProt Q5T8D3) | -1.5 | -0.737 | 0.243
CMIP (UniProt Q8IY22) | -0.151 | -0.146 | -0.236
TSPAN6 (UniProt O43657) | 0.216 | 0.486 | 0.466
S100A11 (UniProt P31949) | 1.19 | 1.12 | 0.639
TYRO3 (UniProt Q06418) | 0.189 | -0.0901 | -0.136
VPS4B (UniProt O75351) | 0.854 | 0.498 | 0.314
TCF25 (UniProt Q9BQ70) | -0.802 | -0.429 | -0.542
PARVA (UniProt Q9NVD7) | 0.468 | 0.672 | 1.14
CCNK (UniProt O75909) | 0.743 | -0.222 | -0.771

Target | thermal stability z-score (lipoamide; [1]) | thermal stability z-score (lipoamide; arsenate co-treatment: none) | thermal stability z-score (potassium arsenate)
SPATA5L1 (UniProt Q9BVQ7) | 0.441 | 0.172 | 0.487
CBX4 (UniProt O00257) | -0.406 | 0.212 | 0.529
AAK1 (UniProt Q2M2I8) | 0.286 | 0.0193 | 0.0056
FAM96A (UniProt Q9H5X1) | -0.0873 | -0.652 | -1.34
EXOC4 (UniProt Q96A65) | -0.433 | -0.0966 | 0.0526
LAMTOR2 (UniProt Q9Y2Q5) | 0.266 | 0.19 | 0.135
AP3S1 (UniProt Q92572) | 0.0661 | 0.0785 | 0.131
ACTR2 (UniProt P61160) | -0.116 | -0.175 | -0.487
B3GLCT (UniProt Q6Y288) | -0.669 | -1.54 | 0.968
EIF5B (UniProt O60841) | -0.519 | -0.31 | 1.42
HAUS1 (UniProt Q96CS2) | 0.0371 | 0.00541 | 0.0563
CKAP2 (UniProt Q8WWK9) | -0.00358 | 0.0789 | -0.222
RRM1 (UniProt P23921) | 0.219 | 0.204 | 0.11
RRP9 (UniProt O43818) | -0.195 | 0.108 | -0.755
CLASP2 (UniProt O75122) | -0.0563 | -0.198 | 0.0564
LMBRD1 (UniProt Q9NUN5) | -0.626 | -0.635 | 0.252
NEFH (UniProt P12036) | -0.156 | -0.292 | 0.4
HGS (UniProt O14964) | 0.268 | 0.638 | 0.102
CASC5 (UniProt Q8NG31) | -0.0952 | -0.0158 | 0.219
DHRS7B (UniProt Q6IAN0) | 0.315 | -0.159 | 0.0755
DNM2 (UniProt P50570) | -0.494 | -0.287 | 0.304
HN1 (UniProt Q9UK76) | 1.68 | 1.13 | 0.518
COASY (UniProt Q13057) | -0.525 | -0.09 | 0.944
S100A4 (UniProt P26447) | -0.414 | -0.145 | -1.43
PEX11B (UniProt O96011) | -0.443 | -0.349 | -0.497
QTRT1 (UniProt Q9BXR0) | 0.739 | -1.03 | -0.729
HPRT1 (UniProt P00492) | 0.468 | 0.716 | 0.0837
